Test results reported in patent publication US8173638B2 (Boehringer Ingelheim International GmbH, priority 2006, dated 2012).
Like-named read-outs stand apart in the source and are kept apart here.

Target: T1, human CB2R (Homo sapiens, UniProt P34972)
T1 construct: host or cells: CHO cells
Assay: CB2R mediated modulation of cAMP synthesis
Format: cell-based
Conditions: for Emax: 0.5 h, read-out: Agonist Efficacy (%); for agonistic activity: found through the use of the described assays (CB2 agonists), qualitative statement
Method: B. CB2R Mediated Modulation of cAMP Synthesis:
CHO cells expressing human CB2R (Euroscreen) were plated at a density of 5000 cells per well in 384 well plates and incubated overnight at 37° C. After removing the media, the cells were treated with test compounds diluted in stimulation buffer containing 1 mM IBMX, 0.25% BSA and 10 uM Forskolin. The assay was incubated for 30 minutes at 37° C. Cells were lysed and the cAMP concentration was measured using DiscoverX-XS cAMP kit, following the manufacturer's protocol. In this setting, agonists will decrease forskolin induced production of cAMP while inverse agonists will further increase forskolin induced production of cAMP. EC50 of agonists were calculated as follows. The maximal amount of cAMP produced by forskolin compared to the level of cAMP inhibited by 1 uM CP55940 is defined as 100%. […] Data was analyzed using a four-parameter logistic model. (Model 205 of XLfit 4.0).

[1] = CHO cells expressing human CB2R, cAMP inhibited by 1 uM CP55940 defined as 100%

T1 sequence (P34972 whole entry): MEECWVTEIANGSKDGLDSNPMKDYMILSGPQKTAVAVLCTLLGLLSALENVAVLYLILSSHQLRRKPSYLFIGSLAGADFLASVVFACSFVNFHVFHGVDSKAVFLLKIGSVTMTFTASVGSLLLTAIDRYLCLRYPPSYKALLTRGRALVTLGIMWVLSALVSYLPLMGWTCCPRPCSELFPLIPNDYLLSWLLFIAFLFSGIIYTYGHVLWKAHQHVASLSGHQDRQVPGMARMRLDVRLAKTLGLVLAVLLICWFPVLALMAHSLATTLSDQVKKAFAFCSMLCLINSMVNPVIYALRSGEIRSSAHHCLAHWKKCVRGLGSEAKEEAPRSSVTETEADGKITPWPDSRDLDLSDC

| Emax [1] [%] | EC50 (read-out: hCB2 cAMP EC50) [nM] | agonistic activity | Structure (SMILES) | also measured |
| --- | --- | --- | --- | --- |
| 111 | 17 |  | CC(C)(C)c1cnc(NC(=O)N2CCCN(C(=O)C3CCC(O)CC3)CC2)s1 (stereo not drawn) [Compound 173, 4-(4-Hydroxy-cyclohexanecarbonyl)-[1,4]diazepane-1-carboxylic acid (5-tert-butyl-thiazol-2-yl)-amide] |  |
| 101 | 3.6 |  | O=C(Nc1nc2c(s1)CCCC2)N1CCCN(C(=O)c2ccc(Cl)cc2)CC1 [Compound 168, 4-(4-Chloro-benzoyl)-[1,4]diazepane-1-carboxylic acid (4,5,6,7-tetrahydro-benzothiazol-2-yl)-amide] |  |
|  |  | agonistic activity | O=C(Nc1cc(C(F)(F)F)ccn1)N1CCCN(C(=O)C2CCOCC2)CC1 [4-(Tetrahydro-pyran-4-carbonyl)-[1,4]diazepane-1-carboxylic acid (4-trifluoromethyl-pyridin-2-yl)-amide] |  |
|  |  | agonistic activity | C[C@@H]1CN(C(=O)N2CCCN(C(=O)Nc3cc(C(C)(C)C)on3)CC2)C[C@H](C)O1 [4-((2R,6S)-2,6-Dimethyl-morpholine-4-carbonyl)-[1,4]diazepane-1-carboxylic acid (5-tert-butyl-isoxazol-3-yl)-amide] |  |
| 104 | 19 |  | CC(C)(C)c1cc(NC(=O)N2CCCN(C(=O)C3CCCCCC3)CC2)no1 [Compound 152, 4-Cycloheptanecarbonyl-[1,4]diazepane-1-carboxylic acid (5-tert-butyl-isoxazol-3-yl)-amide] |  |
|  |  | agonistic activity | CC(C)c1ccc(NC(=O)N2CCCN(C(=O)C3CCOCC3)CC2)cc1 [4-(Tetrahydro-pyran-4-carbonyl)-[1,4]diazepane-1-carboxylic acid (4-isopropyl-phenyl)-amide] |  |
|  |  | agonistic activity | CC1(C(=O)N2CCCN(C(=O)Nc3cc(C(C)(C)C)on3)CC2)CCCCC1 [4-(1-Methyl-cyclohexanecarbonyl)-[1,4]diazepane-1-carboxylic acid (5-tert-butyl-isoxazol-3-yl)-amide] |  |
|  |  | agonistic activity | CC(C)(C)c1cc(NC(=O)N2CCCN(C(=O)N3CC[S+]([O-])CC3)CC2)no1 [4-(1-Oxo-1λ^4-thiomorpholine-4-carbonyl)-[1,4]diazepane-1-carboxylic acid (5-tert-butyl-isoxazol-3-yl)-amide] |  |
|  |  | agonistic activity | CC(C)c1cnc(NC(=O)N2CCCN(C(=O)N3CCS(=O)(=O)CC3)CC2)s1 [4-(1,1-Dioxo-1λ^6-thiomorpholine-4-carbonyl)-[1,4]diazepane-1-carboxylic acid (5-isopropyl-thiazol-2-yl)-amide] |  |
| 96 | 14 |  | O=C(Nc1ccc2ccccc2c1)N1CCCN(C(=O)c2ccc(C(F)(F)F)cc2)CC1 [Compound 92, 4-(4-Trifluoromethyl-benzoyl)-[1,4]diazepane-1-carboxylic acid naphthalen-2-ylamide] |  |
|  |  | agonistic activity | CC(c1ccc(NC(=O)N2CCCN(C(=O)C3CCOCC3)CC2)cc1)C(F)(F)F (stereo not drawn) [4-(Tetrahydro-pyran-4-carbonyl)-[1,4]diazepane-1-carboxylic acid [4-(2,2,2-trifluoro-1-methyl-ethyl)-phenyl]-amide] |  |
| 102 | 9.6 |  | CC(C)(C)c1cc(NC(=O)N2CCCN(C(=O)CN3CCSCC3)CC2)no1 [Compound 227, 4-(2-Thiomorpholin-4-yl-acetyl)-[1,4]diazepane-1-carboxylic acid (5-tert-butyl-isoxazol-3-yl)-amide] |  |
|  |  | agonistic activity | O=C(Nc1ccc(C(F)(F)F)cc1)N1CCCN(C(=O)c2ccc(C(F)(F)F)cc2)CC1 |  |
|  |  | agonistic activity | CC(C)c1ccc(NC(=O)N2CCCN(C(=O)c3ccccn3)CC2)cc1 [4-(Pyridine-2-carbonyl)-[1,4]diazepane-1-carboxylic acid (4-isopropyl-phenyl)-amide] |  |
|  |  | agonistic activity | O=C(Nc1ccc(SC(F)(F)F)cc1)N1CCCN(C(=O)C2CCOCC2)CC1 [4-(Tetrahydro-pyran-4-carbonyl)-[1,4]diazepane-1-carboxylic acid (4-trifluoromethylsulfanyl-phenyl)-amide] |  |
|  |  |  | CC(C)c1ccc(NC(=O)N2CCCN(C(=O)CC(C)(C)C)CC2)cc1 [Compound 60, 4-(3,3-Dimethyl-butyryl)-[1,4]diazepane-1-carboxylic acid (4-isopropyl-phenyl)-amide] | EC50: 78 nM; Emax (CHO): 71% |

| Emax [1] [%] | EC50 (read-out: hCB2 cAMP EC50) [nM] | agonistic activity | Structure (SMILES) | also measured |
| --- | --- | --- | --- | --- |
|  |  | agonistic activity | CCCC(O)c1ccc(NC(=O)N2CCCN(C(=O)CC3CCCC3)CC2)cc1 (stereo not drawn) [4-(2-Cyclopentyl-acetyl)-[1,4]diazepane-1-carboxylic acid [4-(1-hydroxy-butyl)-phenyl]-amide] |  |
| 96 | 120 |  | O=C(Nc1ccc(SC(F)(F)F)cc1)N1CCCN(C(=O)C2CCOCC2)CC1 [Compound 81, 4-(Tetrahydro-pyran-4-carbonyl)-[1,4]diazepane-1-carboxylic acid (4-trifluoromethylsulfanyl-phenyl)-amide] |  |
|  |  |  | CCC(C)c1cc(NC(=O)N2CCCN(C(=O)C3CCOCC3)CC2)on1 (stereo not drawn) [Compound 193, 4-(Tetrahydro-pyran-4-carbonyl)-[1,4]diazepane-1-carboxylic acid (3-sec-butyl-isoxazol-5-yl)-amide] | EC50: 41 nM; Emax (CHO): 106% |
|  |  | agonistic activity | O=C(CCC1CCCCC1)N1CCCN(C(=O)Nc2ccc3ccccc3c2)CC1 [4-(3-Cyclohexyl-propionyl)-[1,4]diazepane-1-carboxylic acid naphthalen-2-ylamide] |  |
| 104 | 13 |  | O=C(CC1CCCC1)N1CCCN(C(=O)Nc2ccc(Br)c(C(F)(F)F)c2)CC1 [Compound 132, 4-(2-Cyclopentyl-acetyl)-[1,4]diazepane-1-carboxylic acid (4-bromo-3-trifluoromethyl-phenyl)-amide] |  |
| 97 | 64 |  | CC(C)(C)c1ccc(NC(=O)N2CCCN(C(=O)c3ccc(Cl)c(Cl)c3)CC2)cc1 [Compound 110, 4-(3,4-Dichloro-benzoyl)-[1,4]diazepane-1-carboxylic acid (4-tert-butyl-phenyl)-amide] |  |
| 102 | 23 |  | CC(C)c1ccc(NC(=O)N2CCCN(C(=O)C3CCCCC3)CC2)cc1 [Compound 34, 4-Cyclohexanecarbonyl-[1,4]diazepane-1-carboxylic acid (4-isopropyl-phenyl)-amide] |  |
|  |  | agonistic activity | CC(C)(C)C(=O)N1CCCN(C(=O)Nc2cc(C(C)(C)C)on2)CC1 [4-(2,2-Dimethyl-propionyl)-[1,4]diazepane-1-carboxylic acid (5-tert-butyl-isoxazol-3-yl)-amide] |  |
|  |  | agonistic activity | CC(C)c1ccc(NC(=O)N2CCCN(C(=O)CC3CCCCC3)CC2)cc1 [4-(2-Cyclohexyl-acetyl)-[1,4]diazepane-1-carboxylic acid (4-isopropyl-phenyl)-amide] |  |
| 106 | 54 |  | CC(C)(C)c1cc(NC(=O)N2CCCN(C(=O)N3CCOCC3)CC2)on1 [Compound 225, 4-(Morpholine-4-carbonyl)-[1,4]diazepane-1-carboxylic acid (3-tert-butyl-isoxazol-5-yl)-amide] |  |
|  |  | agonistic activity | O=C(CCC1CCCC1)N1CCCN(C(=O)Nc2ccc(C(F)(F)F)cc2)CC1 [4-(3-Cyclopentyl-propionyl)-[1,4]diazepane-1-carboxylic acid (4-trifluoromethyl-phenyl)-amide] |  |
|  |  | agonistic activity | CS(=O)(=O)c1ccc(NC(=O)N2CCCN(C(=O)CC3CCCC3)CC2)cc1 [4-(2-Cyclopentyl-acetyl)-[1,4]diazepane-1-carboxylic acid (4-methanesulfonyl-phenyl)-amide] |  |
|  |  | agonistic activity | CS(=O)(=O)c1ccc(NC(=O)N2CCCN(C(=O)CC3CCOCC3)CC2)cc1 [4-(2-Tetrahydro-pyran-4-yl-acetyl)-[1,4]diazepane-1-carboxylic acid (4-methanesulfonyl-phenyl)-amide] |  |
| 91 | 90 |  | O=C(Nc1nc(C2CC2)cs1)N1CCCN(C(=O)c2ccc(Cl)cc2)CC1 [Compound 166, 4-(4-Chloro-benzoyl)-[1,4]diazepane-1-carboxylic acid (4-cyclopropyl-thiazol-2-yl)-amide] |  |
| 97 | 7.8 |  | CCC(C)c1ccc(NC(=O)N2CCCN(C(=O)C3CCOCC3)CC2)cc1 (stereo not drawn) [Compound 133, 4-(Tetrahydro-pyran-4-carbonyl)-[1,4]diazepane-1-carboxylic acid (4-sec-butyl-phenyl)-amide] |  |

| Structure (SMILES) | Emax [1] [%] | EC50 (read-out: hCB2 cAMP EC50) [nM] | agonistic activity | also measured |
| --- | --- | --- | --- | --- |
| CCCCc1ccc(NC(=O)N2CCCN(C(=O)CC3CCCCC3)CC2)cc1 [4-(2-Cyclohexyl-acetyl)-[1,4]diazepane-1-carboxylic acid (4-butyl-phenyl)-amide] |  |  | agonistic activity |  |
| CC(C)(C)c1ccc(NC(=O)N2CCCN(C(=O)c3cc(Cl)cc(Cl)c3)CC2)cc1 [4-(3,5-Dichloro-benzoyl)-[1,4]diazepane-1-carboxylic acid (4-tert-butyl-phenyl)-amide] |  |  | agonistic activity |  |
| CCC(C)c1ccc(NC(=O)N2CCCN(C(=O)CC3CCCC3)CC2)cc1 (stereo not drawn) [4-(2-Cyclopentyl-acetyl)-[1,4]diazepane-1-carboxylic acid (4-sec-butyl-phenyl)-amide] |  |  | agonistic activity |  |
